Laboratory results as given in ChEMBL document CHEMBL1201862, “PubChem BioAssay data set” (2004).
Each block holds one compound with its values, some of them ahead of it. Active and inactive are the calls of the source.

Assays:
[1] = target: 5-hydroxytryptamine receptor 2A (Mus musculus, UniProt P35363); format: functional, cell-based;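 further: CHO-K1 cells with tagged receptor and beta-arrestin; agonist potency measured as compound-induced activation of the receptor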
[2] = target: Mu-type opioid receptor (Homo sapiens, UniProt P35372); format: functional, cell-based;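 further: U2OS cells with beta-arrestin recruitment to OPRM1 by beta-gal complementation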
[3] = target: Albumin (Bos taurus, UniProt P02769); test: Counterscreen for inhibitors of T-cell receptor (TCR)-CD3 interaction: Fluorescence-based biochemical high throughput dose response assay to identify inhibitors of T-cell receptor (TCR)-CD3 interaction using a TAMRA-labeled BSA probe.; format: functional
[4] = Trypanosoma cruzi growth suppression in host cells – NIH3T3 host cells, beta-gal luminescence, confirmation (AID 2044); format: functional, cell-based;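 further: intracellular parasites grown in NIH/3T3 mouse fibroblasts as host cells; luminescent beta-galactosidase reporter signal from transgenic T. cruzi replicating inside host cells; inhibitors lower the luminescence signal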
[5] = NIH3T3 cell viability loss – ATP luminescence, mouse fibroblasts, counter-screen, dose response (AID 2010); format: functional, cell-based;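 further: cells exposed to compound for about 90 hours before reading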
[6] = Counterscreen for activators of the function of SWI/SNF related, matrix associated, actin dependent regulator of chromatin, subfamily a, member 2 (SMARCA2, BRM): Luminescence-based cell-based high throughput dose response assay to identify non-selective compounds using the VP16 reporter assay.; format: functional
[7] = target: SWI/SNF-related matrix-associated actin-dependent regulator of chromatin subfamily A member 2 (Homo sapiens, UniProt P51531); test: Luminescence-based cell-based high throughput dose response assay to identify activators of the function of SWI/SNF related, matrix associated, actin dependent regulator of chromatin, subfamily a, member 2 (SMARCA2, BRM).; format: functional
[8] = target: T1, Sentrin-specific protease 8 (Homo sapiens, UniProt Q96LD8); format: functional
T1 sequence (Q96LD8 whole entry): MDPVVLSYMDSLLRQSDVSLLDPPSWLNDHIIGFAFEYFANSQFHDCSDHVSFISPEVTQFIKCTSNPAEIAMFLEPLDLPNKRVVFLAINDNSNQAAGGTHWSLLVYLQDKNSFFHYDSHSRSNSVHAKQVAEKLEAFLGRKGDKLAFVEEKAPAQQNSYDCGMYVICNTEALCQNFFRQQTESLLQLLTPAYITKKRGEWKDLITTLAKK

[9] = target: T1, Sentrin-specific protease 8; format: functional; remark: listed apart in the source
[10] = target: COUP transcription factor 2 (Homo sapiens, UniProt P24468); test: Luminescence-based cell-based high throughput dose response assay to identify inhibitors of COUP-TFII (NR2F2).; format: functional;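 further: HEK293 cells transiently cotransfected with COUP-TFII expression vector and reporter; luciferase reporter luminescence driven by COUP-TFII from the pX2-168 reporter plasmid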
[11] = HIV-1 AD8 envelope cell-cell fusion blockers – cherry-pick, dose response (AID 652062); format: functional, cell-based;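 further: luciferase signal from cell-cell fusion driven by HIV-1 clade B AD8 Env; potency is for inhibitors of fusion seen as a drop in luminescence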
[12] = blockers of HIV-1 envelope-mediated cell-cell fusion – cherry-pick, dose response (AID 652057); format: functional, cell-based
[13] = viability loss in CEM21 cells – cell-based, CellTiter-Glo luminescence, cherry-picked, cytotoxicity control for viral fusion inhibitor project, dose response (AID 652042); format: functional;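 further: potency for signal decrease meaning cytotoxicity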
[14] = off-target signal loss in HeLa-CEM21 co-culture – HeLa F-luc CTL cells, cherry-picked, counter-screen for HIV-1 Env fusion inhibitor project, dose response (AID 652040); format: functional, cell-based;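 further: potency for signal decrease marking cytotoxic or nonspecific inhibition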
[15] = blockers of HIV-1 ZM109 envelope-driven cell-cell fusion – HeLa effector, CEM target cells, luciferase, cherry-pick, dose response (AID 652058); format: functional, cell-based;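 further: luciferase signal from HIV-1 Env mediated cell-cell fusion of effector and target cells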
[16] = target: T2, Corticotropin-releasing factor receptor 2/Corticotropin-releasing factor-binding protein (Homo sapiens, UniProt P24387+Q13324); test: activators of CRF receptor 2 with binding protein – uHTS hits, confirmation (AID 602473); format: functional; details: read-out: EC50_Mean
T2 sequence (Q13324 whole entry): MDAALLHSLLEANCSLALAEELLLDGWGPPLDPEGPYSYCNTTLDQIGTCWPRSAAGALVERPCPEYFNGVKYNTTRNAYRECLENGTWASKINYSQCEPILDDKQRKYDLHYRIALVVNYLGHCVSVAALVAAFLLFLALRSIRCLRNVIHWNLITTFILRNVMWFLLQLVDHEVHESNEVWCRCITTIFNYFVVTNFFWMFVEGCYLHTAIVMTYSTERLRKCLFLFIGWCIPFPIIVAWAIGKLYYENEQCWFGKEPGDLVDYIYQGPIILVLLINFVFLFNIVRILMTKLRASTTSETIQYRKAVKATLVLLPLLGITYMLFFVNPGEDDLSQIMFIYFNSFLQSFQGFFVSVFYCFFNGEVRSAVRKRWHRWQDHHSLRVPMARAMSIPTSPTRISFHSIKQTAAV
T2 sequence (P24387 whole entry): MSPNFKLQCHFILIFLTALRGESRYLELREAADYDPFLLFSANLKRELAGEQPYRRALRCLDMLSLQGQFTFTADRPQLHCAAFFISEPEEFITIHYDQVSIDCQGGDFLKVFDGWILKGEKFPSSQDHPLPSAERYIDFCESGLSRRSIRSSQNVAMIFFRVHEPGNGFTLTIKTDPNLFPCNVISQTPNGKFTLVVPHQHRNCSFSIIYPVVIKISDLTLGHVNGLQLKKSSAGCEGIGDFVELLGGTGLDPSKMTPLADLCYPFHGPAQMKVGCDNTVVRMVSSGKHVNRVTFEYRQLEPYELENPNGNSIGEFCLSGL

[17] = target: T2, Corticotropin-releasing factor receptor 2/Corticotropin-releasing factor-binding protein; test: Dose Response confirmation of uHTS hits for small molecule antagonists of the CRF-binding protein and CRF-R2 receptor complex.; format: functional; details: read-out: IC50_Mean
[18] = target: Kallikrein-7 (Homo sapiens, UniProt P49862); test: Fluorescence Intensity-based biochemical primary high throughput dose response assay to identify activators of kallikrein-7 (K7) zymogen.
[19] = target: T3, Oxysterols receptor LXR-beta (Homo sapiens, UniProt P55055); format: functional, cell-based;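 further: Cell-based luminescence dose-response assay of agonist activity at LXR, run as a confirmatory counterscreen to a daf-12 agonist screen; HEK293 cells with Gal4-LXR fusion and GAL4-driven luciferase reporter; agonist potency from rising luciferase signal of a Gal4-LXR reporter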
T3 sequence (P55055 whole entry): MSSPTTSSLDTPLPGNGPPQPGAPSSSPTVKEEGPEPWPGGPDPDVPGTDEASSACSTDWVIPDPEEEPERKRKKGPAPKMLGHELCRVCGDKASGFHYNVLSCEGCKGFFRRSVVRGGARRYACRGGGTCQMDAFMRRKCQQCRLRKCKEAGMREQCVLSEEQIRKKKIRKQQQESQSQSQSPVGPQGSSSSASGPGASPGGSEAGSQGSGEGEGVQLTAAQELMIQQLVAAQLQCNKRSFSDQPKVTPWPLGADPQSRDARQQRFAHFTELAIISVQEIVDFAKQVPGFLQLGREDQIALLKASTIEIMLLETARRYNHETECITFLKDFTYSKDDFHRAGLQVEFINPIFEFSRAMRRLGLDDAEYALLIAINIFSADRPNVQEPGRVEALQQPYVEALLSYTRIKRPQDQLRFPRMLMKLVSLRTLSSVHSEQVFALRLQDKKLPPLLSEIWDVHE

[20] = cells

5-hydroxytryptamine receptor 2A, sequence (P35363 whole entry): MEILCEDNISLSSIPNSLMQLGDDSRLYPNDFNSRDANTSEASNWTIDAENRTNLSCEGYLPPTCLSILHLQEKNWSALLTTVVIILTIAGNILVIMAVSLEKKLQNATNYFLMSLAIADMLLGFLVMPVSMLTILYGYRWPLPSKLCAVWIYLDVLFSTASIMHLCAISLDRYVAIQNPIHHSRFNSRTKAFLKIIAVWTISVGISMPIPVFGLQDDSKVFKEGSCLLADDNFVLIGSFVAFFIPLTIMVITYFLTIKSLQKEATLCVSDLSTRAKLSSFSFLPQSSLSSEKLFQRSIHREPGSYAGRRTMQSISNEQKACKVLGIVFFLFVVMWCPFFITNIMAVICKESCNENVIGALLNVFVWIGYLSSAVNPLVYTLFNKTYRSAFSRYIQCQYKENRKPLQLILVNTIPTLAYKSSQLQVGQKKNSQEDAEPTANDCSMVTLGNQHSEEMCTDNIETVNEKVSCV
Mu-type opioid receptor, sequence (P35372 whole entry): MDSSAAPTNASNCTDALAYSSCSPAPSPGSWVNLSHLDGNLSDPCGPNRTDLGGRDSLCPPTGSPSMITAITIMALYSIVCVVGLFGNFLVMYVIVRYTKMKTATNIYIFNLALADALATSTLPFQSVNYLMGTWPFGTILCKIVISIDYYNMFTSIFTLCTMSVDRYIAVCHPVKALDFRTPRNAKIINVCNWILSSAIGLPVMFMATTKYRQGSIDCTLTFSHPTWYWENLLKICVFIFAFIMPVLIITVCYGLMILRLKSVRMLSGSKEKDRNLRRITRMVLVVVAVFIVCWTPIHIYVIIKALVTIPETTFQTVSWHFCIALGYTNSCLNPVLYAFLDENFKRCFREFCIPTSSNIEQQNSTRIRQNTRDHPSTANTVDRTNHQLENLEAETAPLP
SWI/SNF-related matrix-associated actin-dependent regulator of chromatin subfamily A member 2, sequence (P51531 whole entry): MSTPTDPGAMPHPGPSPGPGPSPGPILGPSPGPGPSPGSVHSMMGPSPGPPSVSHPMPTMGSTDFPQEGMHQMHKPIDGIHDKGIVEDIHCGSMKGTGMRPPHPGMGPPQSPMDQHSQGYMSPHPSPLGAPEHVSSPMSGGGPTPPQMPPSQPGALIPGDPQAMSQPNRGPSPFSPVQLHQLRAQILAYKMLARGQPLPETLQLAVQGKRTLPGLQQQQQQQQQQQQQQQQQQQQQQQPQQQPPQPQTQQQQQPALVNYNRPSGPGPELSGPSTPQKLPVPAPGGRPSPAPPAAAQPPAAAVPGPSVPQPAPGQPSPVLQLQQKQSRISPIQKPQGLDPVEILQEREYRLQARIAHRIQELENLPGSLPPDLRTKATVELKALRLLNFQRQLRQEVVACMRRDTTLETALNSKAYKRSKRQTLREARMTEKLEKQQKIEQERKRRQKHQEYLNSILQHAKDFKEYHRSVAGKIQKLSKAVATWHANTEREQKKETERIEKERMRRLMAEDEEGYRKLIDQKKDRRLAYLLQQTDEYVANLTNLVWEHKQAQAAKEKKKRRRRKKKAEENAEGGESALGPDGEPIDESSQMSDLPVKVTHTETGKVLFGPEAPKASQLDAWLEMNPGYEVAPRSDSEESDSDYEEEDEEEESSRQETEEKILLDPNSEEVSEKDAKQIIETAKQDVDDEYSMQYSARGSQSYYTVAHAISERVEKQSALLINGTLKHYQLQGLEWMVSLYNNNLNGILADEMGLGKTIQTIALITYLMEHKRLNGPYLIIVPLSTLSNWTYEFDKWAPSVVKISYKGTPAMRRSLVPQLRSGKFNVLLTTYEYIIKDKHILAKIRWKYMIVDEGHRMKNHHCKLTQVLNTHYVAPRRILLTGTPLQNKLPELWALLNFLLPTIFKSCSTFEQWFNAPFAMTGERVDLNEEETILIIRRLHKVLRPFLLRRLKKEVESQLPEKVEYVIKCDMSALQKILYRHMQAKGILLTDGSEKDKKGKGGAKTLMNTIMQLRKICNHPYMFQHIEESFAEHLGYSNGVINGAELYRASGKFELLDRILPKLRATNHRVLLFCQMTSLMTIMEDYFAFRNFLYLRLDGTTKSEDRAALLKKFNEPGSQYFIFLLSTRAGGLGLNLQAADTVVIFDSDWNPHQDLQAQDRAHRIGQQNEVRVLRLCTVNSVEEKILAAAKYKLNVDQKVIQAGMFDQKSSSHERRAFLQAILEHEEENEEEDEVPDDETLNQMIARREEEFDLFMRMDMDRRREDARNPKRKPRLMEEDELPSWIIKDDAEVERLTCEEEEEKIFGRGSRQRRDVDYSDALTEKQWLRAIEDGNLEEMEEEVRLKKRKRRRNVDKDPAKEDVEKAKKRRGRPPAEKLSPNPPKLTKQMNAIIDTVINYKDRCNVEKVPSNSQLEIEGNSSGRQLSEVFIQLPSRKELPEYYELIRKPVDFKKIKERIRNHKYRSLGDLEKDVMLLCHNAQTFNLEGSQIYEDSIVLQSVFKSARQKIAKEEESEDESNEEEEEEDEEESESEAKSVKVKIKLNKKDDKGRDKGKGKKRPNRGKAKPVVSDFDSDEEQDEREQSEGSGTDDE
Albumin, sequence (P02769 whole entry): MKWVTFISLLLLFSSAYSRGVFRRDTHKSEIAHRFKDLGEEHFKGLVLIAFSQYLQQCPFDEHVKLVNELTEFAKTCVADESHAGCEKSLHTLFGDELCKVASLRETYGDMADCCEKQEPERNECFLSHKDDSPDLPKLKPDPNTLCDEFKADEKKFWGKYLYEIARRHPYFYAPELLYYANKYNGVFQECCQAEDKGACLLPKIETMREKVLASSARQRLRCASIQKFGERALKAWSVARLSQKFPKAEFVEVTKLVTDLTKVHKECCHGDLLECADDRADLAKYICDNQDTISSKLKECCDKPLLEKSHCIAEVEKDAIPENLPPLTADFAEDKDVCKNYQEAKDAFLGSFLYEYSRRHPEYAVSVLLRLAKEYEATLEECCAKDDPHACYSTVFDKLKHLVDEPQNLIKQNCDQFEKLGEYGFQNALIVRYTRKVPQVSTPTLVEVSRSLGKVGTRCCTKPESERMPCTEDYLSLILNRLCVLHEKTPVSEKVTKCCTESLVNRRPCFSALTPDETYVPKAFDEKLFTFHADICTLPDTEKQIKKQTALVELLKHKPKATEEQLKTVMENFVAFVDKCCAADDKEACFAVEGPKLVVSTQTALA
COUP transcription factor 2, sequence (P24468 whole entry, the tested form may be a part): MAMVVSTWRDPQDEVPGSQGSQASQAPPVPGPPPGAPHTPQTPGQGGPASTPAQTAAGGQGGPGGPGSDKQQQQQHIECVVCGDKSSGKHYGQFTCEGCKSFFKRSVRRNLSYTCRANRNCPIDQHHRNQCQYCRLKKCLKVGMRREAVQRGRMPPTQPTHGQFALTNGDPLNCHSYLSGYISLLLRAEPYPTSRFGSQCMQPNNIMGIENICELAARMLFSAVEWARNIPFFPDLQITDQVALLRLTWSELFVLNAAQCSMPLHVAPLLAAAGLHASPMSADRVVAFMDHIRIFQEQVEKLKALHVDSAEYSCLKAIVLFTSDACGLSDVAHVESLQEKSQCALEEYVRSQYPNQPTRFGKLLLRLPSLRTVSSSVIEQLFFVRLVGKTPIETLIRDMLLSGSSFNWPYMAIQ
Kallikrein-7, sequence (P49862 whole entry, the tested form may be a part): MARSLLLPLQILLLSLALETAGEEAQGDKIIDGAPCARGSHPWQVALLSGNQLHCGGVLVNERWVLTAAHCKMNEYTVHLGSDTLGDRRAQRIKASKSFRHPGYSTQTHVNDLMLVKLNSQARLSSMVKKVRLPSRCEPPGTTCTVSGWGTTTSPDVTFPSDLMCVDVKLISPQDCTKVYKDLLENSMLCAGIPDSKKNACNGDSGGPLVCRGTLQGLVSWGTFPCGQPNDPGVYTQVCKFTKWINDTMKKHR

EC50 [1]: 18.4 µM (inactive)
EC50 [2]: 92.5 µM (inactive)
Structure (SMILES): O=C(CNCc1cccs1)Nc1cc(S(=O)(=O)N2CCCC2)ccc1Cl

Structure (SMILES): COc1ccc(NS(=O)(=O)c2cc(NC(=O)/C=C/c3cc(OC)c(OC)c(OC)c3)ccc2N2CCCCC2)cc1
IC50 [3]: > 94.1 µM (inactive)
EC50 [4]: 1.63 µM (active)
EC50 [5]: > 60 µM (not active)

Structure (SMILES): Cc1cccc(CSc2ccc(-c3cccs3)nn2)c1
EC50 [6]: > 91.1 µM (inactive)
EC50 [7]: > 91.1 µM (inactive)

Structure (SMILES): COc1ccc2c(c1)C(=O)N(c1ccccc1OC)C(=O)C2
IC50 [8]: > 100 µM (inactive)
IC50 [9]: 15.4 µM (active)

IC50 [10]: 13.6 µM (inactive)
Structure (SMILES): CCOC(=O)N1CCC(Nc2ncnc3c2cnn3-c2ccc(C)cc2C)CC1

Structure (SMILES): CCOc1cccc(-c2nnc3sc(C4CCCCC4)nn23)c1
AC50 [11]: 7.17 µM (active)
AC50 [12]: 5.97 µM (active)
AC50 [13]: 49.9 µM (active)
AC50 [14]: 46 µM (active)
AC50 [15]: 21.4 µM (active)

Structure (SMILES): CC(=O)N1CCC(N2CCCC(C(=O)c3cccc(Cl)c3)C2)CC1 (configuration not stated)
EC50 [16]: > 53 µM (inactive)
EC50 [1]: 0.764 µM (active)
EC50 [2]: 92.5 µM (inactive)
IC50 [17]: > 47.1 µM (inactive)

EC50 [18]: > 69.5 µM (inactive)
Structure (SMILES): O=C(NCCCN1CCOCC1)c1cc2nc(-c3ccco3)cc(C(F)(F)F)n2n1

Structure (SMILES): Cc1cc(C(=O)Cn2nnc3ccccc3c2=O)c(C)n1Cc1cccs1
EC50 [19]: > 67.6 µM (inactive)
EC50 [20]: > 67.6 µM (inactive)
